Results as given in patent US6737383B1, “Herbicidal oxadiazolidines” (priority 1999, dated 2004).

Assays:
blackgrass = experiment: Test B pre/postemergence blackgrass; format: in vivo, Alopecurus myosuroides
Procedure, shortened: (§1)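 Response is a visual 0-to-10 score relative to untreated plants, where 0 means no effect and 10 means complete control, taken twelve to sixteen days after application. Treatments went onto soil at planting and onto foliage of 1- to 4-leaf plants, using a surfactant-containing non-phytotoxic solvent.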

surinam grass = experiment: Test B pre/postemergence surinam grass; format: in vivo, Brachiaria decumbens
Procedure, shortened: as §1

cocklebur = experiment: Test B pre/postemergence cocklebur; format: in vivo, Xanthium strumarium
Procedure, shortened: as §1

corn = experiment: Test B pre/postemergence corn; format: in vivo, Zea mays
Procedure, shortened: as §1

crabgrass = experiment: Test B pre/postemergence crabgrass; format: in vivo, Digitaria sanguinalis
Procedure, shortened: as §1

giant foxtail = experiment: Test B pre/postemergence giant foxtail; format: in vivo, Setaria faberii
Procedure, shortened: as §1

morningglory = experiment: Test B pre/postemergence morningglory; format: in vivo, Ipomoea hederacea; conditions: for Plant response rating, Morningglory: scale of 0 to 10 where 0 is no effect and 10 is complete control
Procedure, shortened: as §1

rape = experiment: Test B pre/postemergence rape; format: in vivo, Brassica napus; conditions: for Plant response rating, Rape: scale of 0 to 10 where 0 is no effect and 10 is complete control
Procedure, shortened: as §1

soybean = experiment: Test B pre/postemergence soybean; format: in vivo, Glycine max; conditions: for Plant response rating, Soybean: scale of 0 to 10 where 0 is no effect and 10 is complete control
Procedure, shortened: as §1

sugar beet = experiment: Test B pre/postemergence sugar beet; format: in vivo, Beta vulgaris; conditions: for Plant response rating, Sugarbeets: scale of 0 to 10 where 0 is no effect and 10 is complete control
Procedure, shortened: as §1

velvetleaf = experiment: Test B pre/postemergence velvetleaf; format: in vivo, Abutilon theophrasti; conditions: for Plant response rating, Velvetleaf: scale of 0 to 10 where 0 is no effect and 10 is complete control
Procedure, shortened: as §1

wheat = experiment: Test B pre/postemergence wheat; format: in vivo, Triticum aestivum; conditions: for Plant response rating, Wheat: scale of 0 to 10 where 0 is no effect and 10 is complete control
Procedure, shortened: as §1

wild oat = experiment: Test B pre/postemergence wild oat; format: in vivo, Avena fatua; conditions: for Plant response rating, Wild oats: scale of 0 to 10 where 0 is no effect and 10 is complete control
Procedure, shortened: as §1

purple nutsedge = experiment: Test B pre/postemergence purple nutsedge; format: in vivo, Cyperus rotundus; conditions: for Plant response rating, Nutsedge: scale of 0 to 10 where 0 is no effect and 10 is complete control
Procedure, shortened: as §1

smallflower flatsedge = experiment: Test B flood test smallflower flatsedge; format: in vivo, Cyperus difformis
Procedure, shortened: (§2)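 Each value is a visual injury score relative to controls, with 10 meaning complete control and 0 no effect. Evaluation took place twelve to sixteen days after the 2-leaf-stage plants were treated and kept in the greenhouse.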

duck salad = experiment: Test B flood test duck salad; format: in vivo, Heteranthera limosa
Procedure, shortened: as §2

[1] = Postemergence, Rate 250 g/ha, scale 0 to 10
[2] = Postemergence, Rate 500 g/ha, scale of 0 to 10 where 0 is no effect and 10 is complete control
[3] = Preemergence, Rate 62 g/ha, scale of 0 to 10 where 0 is no effect and 10 is complete control
[4] = Preemergence, Rate 125 g/ha, scale of 0 to 10 where 0 is no effect and 10 is complete control
[5] = Preemergence, Rate 250 g/ha, scale 0 to 10, 0 is no effect, 10 is complete control
[6] = Preemergence, Rate 500 g/ha, scale 0 to 10, 0 is no effect, 10 is complete control
[7] = Rate 62 g/ha, Postemergence, scale 0 to 10, 0 no effect, 10 complete control
[8] = Rate 125 g/ha, Postemergence, scale 0 to 10, 0 is no effect, 10 is complete control
[9] = Rate 62 g/ha, flood test species, Pre-emergence, visual evaluation after twelve to sixteen days
[10] = Rate 125 g/ha, under heading Pre-emergence, flood test species, visual evaluation after twelve to sixteen days
[11] = Rate 250 g/ha, Pre-emergence (flood test species), scale 0 to 10, 0 is no effect, 10 is complete control
[12] = Rate 500 g/ha, Pre-emergence, flood test species, scale 0 to 10 (0 no effect, 10 complete control)

C=CC(OC)n1c(=O)on(C(=O)N(c2ccc(F)cc2)C(C)C)c1=O (stereo not drawn) [Compound 452]
Blackgrass plant response rating (blackgrass; [1]): 3
Blackgrass plant response rating (blackgrass; [2]): 5
Plant response rating, Blackgrass (blackgrass; [3]): 0
Plant response rating, Blackgrass (blackgrass; [4]): 0
Blackgrass plant response rating (blackgrass; [5]): 2
Blackgrass plant response rating (blackgrass; [6]): 2
Blackgrass plant response rating (blackgrass; [7]): 0
Blackgrass plant response rating (blackgrass; [8]): 0
B. signalgrass plant response rating (surinam grass; Postemergence, Rate 250 g/ha, scale 0 to 10, 0 no effect, 10 complete control): 0
B. signalgrass plant response rating (surinam grass; [2]): 0
Plant response rating, B. signalgrass (surinam grass; [3]): 0
Plant response rating, B. signalgrass (surinam grass; [4]): 0
B. signalgrass plant response rating (surinam grass; [5]): 0
B. signalgrass plant response rating (surinam grass; [6]): 0
B. signalgrass plant response rating (surinam grass; [7]): 0
B. signalgrass plant response rating (surinam grass; [8]): 0
Cocklebur plant response rating (cocklebur; [1]): 0
Cocklebur plant response rating (cocklebur; [2]): 0
Plant response rating, Cocklebur (cocklebur; [3]): 0
Plant response rating, Cocklebur (cocklebur; [4]): 0
Cocklebur plant response rating (cocklebur; [5]): 0
Cocklebur plant response rating (cocklebur; [6]): 0
Cocklebur plant response rating (cocklebur; [7]): 0
Cocklebur plant response rating (cocklebur; [8]): 0
Corn plant response rating (corn; [1]): 0
Corn plant response rating (corn; [2]): 0
Plant response rating, Corn (corn; [3]): 0
Plant response rating, Corn (corn; [4]): 0
Corn plant response rating (corn; [5]): 0
Corn plant response rating (corn; [6]): 0
Corn plant response rating (corn; [7]): 0
Corn plant response rating (corn; [8]): 0
Crabgrass plant response rating (crabgrass; [1]): 6
Crabgrass plant response rating (crabgrass; [2]): 6
Plant response rating, Crabgrass (crabgrass; [3]): 5
Plant response rating, Crabgrass (crabgrass; [4]): 5
Crabgrass plant response rating (crabgrass; [5]): 5
Crabgrass plant response rating (crabgrass; [6]): 5
Crabgrass plant response rating (crabgrass; [7]): 3
Giant foxtail plant response rating (giant foxtail; [1]): 7
Giant foxtail plant response rating (giant foxtail; [2]): 7
Plant response rating, Giant foxtail (giant foxtail; [3]): 2
Plant response rating, Giant foxtail (giant foxtail; [4]): 3
Giant foxtail plant response rating (giant foxtail; [5]): 4
Giant foxtail plant response rating (giant foxtail; [6]): 7
Giant foxtail plant response rating (giant foxtail; [7]): 2
Giant foxtail plant response rating (giant foxtail; [8]): 4
Morningglory plant response rating (morningglory; [1]): 2
Plant response rating, Morningglory (morningglory; Preemergence, Rate 62 g/ha): 0
Plant response rating, Morningglory (morningglory; Preemergence, Rate 125 g/ha): 0
Morningglory plant response rating (morningglory; [5]): 0
Morningglory plant response rating (morningglory; [6]): 0
Morningglory plant response rating (morningglory; [7]): 1
Morningglory plant response rating (morningglory; [8]): 2
Rape plant response rating (rape; [1]): 0
Plant response rating, Rape (rape; Preemergence, Rate 62 g/ha): 0
Plant response rating, Rape (rape; Preemergence, Rate 125 g/ha): 0
Rape plant response rating (rape; [5]): 0
Rape plant response rating (rape; [6]): 0
Rape plant response rating (rape; [7]): 0
Rape plant response rating (rape; [8]): 0
Soybean plant response rating (soybean; [1]): 1
Plant response rating, Soybean (soybean; Preemergence, Rate 62 g/ha): 0
Plant response rating, Soybean (soybean; Preemergence, Rate 125 g/ha): 0
Soybean plant response rating (soybean; [5]): 0
Soybean plant response rating (soybean; [6]): 0
Soybean plant response rating (soybean; [7]): 1
Soybean plant response rating (soybean; [8]): 1
Sugarbeets plant response rating (sugar beet; [1]): 0
Plant response rating, Sugarbeets (sugar beet; Preemergence, Rate 62 g/ha): 0
Plant response rating, Sugarbeets (sugar beet; Preemergence, Rate 125 g/ha): 0
Sugarbeets plant response rating (sugar beet; [5]): 0
Sugarbeets plant response rating (sugar beet; [6]): 0
Sugarbeets plant response rating (sugar beet; [7]): 0
Sugarbeets plant response rating (sugar beet; [8]): 0
Velvetleaf plant response rating (velvetleaf; [1]): 0
Plant response rating, Velvetleaf (velvetleaf; Preemergence, Rate 62 g/ha): 0
Plant response rating, Velvetleaf (velvetleaf; Preemergence, Rate 125 g/ha): 0
Velvetleaf plant response rating (velvetleaf; [5]): 0
Velvetleaf plant response rating (velvetleaf; [6]): 0
Velvetleaf plant response rating (velvetleaf; [7]): 0
Velvetleaf plant response rating (velvetleaf; [8]): 0
Wheat plant response rating (wheat; [1]): 0
Plant response rating, Wheat (wheat; Preemergence, Rate 62 g/ha): 0
Plant response rating, Wheat (wheat; Preemergence, Rate 125 g/ha): 0
Wheat plant response rating (wheat; [5]): 0
Wheat plant response rating (wheat; [6]): 0
Wheat plant response rating (wheat; [7]): 0
Wheat plant response rating (wheat; [8]): 0
Wild oats plant response rating (wild oat; [1]): 0
Plant response rating, Wild oats (wild oat; Preemergence, Rate 62 g/ha): 0
Plant response rating, Wild oats (wild oat; Preemergence, Rate 125 g/ha): 0
Wild oats plant response rating (wild oat; [5]): 0
Wild oats plant response rating (wild oat; [6]): 0
Wild oats plant response rating (wild oat; [7]): 0
Wild oats plant response rating (wild oat; [8]): 0
Nutsedge plant response rating (purple nutsedge; [1]): 0
Plant response rating, Nutsedge (purple nutsedge; Preemergence, Rate 62 g/ha): 0
Plant response rating, Nutsedge (purple nutsedge; Preemergence, Rate 125 g/ha): 0
Nutsedge plant response rating (purple nutsedge; [5]): 0
Nutsedge plant response rating (purple nutsedge; [6]): 0
Nutsedge plant response rating (purple nutsedge; [7]): 0
Nutsedge plant response rating (purple nutsedge; [8]): 0
Plant response rating, S. Flatsedge (0 to 10 scale, 0 is no effect, 10 is complete control) (smallflower flatsedge; [9]): 0
S. Flatsedge plant response rating (0 to 10 scale, 0 is no effect, 10 is complete control) (smallflower flatsedge; [10]): 0
S. Flatsedge plant response rating (smallflower flatsedge; [11]): 0
S. Flatsedge plant response rating (smallflower flatsedge; [12]): 0
Plant response rating, Ducksalad (0 to 10 scale, 0 is no effect, 10 is complete control) (duck salad; [9]): 0
Ducksalad plant response rating (0 to 10 scale, 0 is no effect, 10 is complete control) (duck salad; [10]): 0
Ducksalad plant response rating (duck salad; [11]): 0
Ducksalad plant response rating (duck salad; [12]): 0
